The values that follow come from US10968214B2, “KRas G12C inhibitors” (Eli Lilly and Company, priority 2018, dated 2021).

Several values for one entry are separate records, joined by “and”; a condition that tells them apart may be missing. Equal values may be shown once. Read-outs that look alike come from different tables or passages of the source.

What is called IC50 is the concentration that gives 50% inhibition.

For assay [1], the system named is H1373. Nature of the assay: Combination 4 day growth assay (Cell TiterGlo), H1373. The assay is classed as cell-based. As to conditions: Homo sapiens, NCI-H1373, 96 h, single treatment, read-out: Absolute IC50. The protocol: (§1) Cell lines for this study are obtained from ATCC and grown under ATCC recommended conditions, except for LXFA-983L, which is obtained from Oncotest/Charles Rivers Laboratories, Wilmington, Mass. and D122-96, which is obtained from L. Eisenbach (Weizman Institute of Science, Rehovot, Israel)—both grown under recommended conditions. […] The proliferation assay is performed as a 4 day growth assay using Cell TiterGlo® as the readout. Briefly, cells are plated in 96-well cell culture plates and allowed to adhere overnight at 37° C. The following day, cells are treated with compounds, either single treatments or combination treatments. First, the testing compounds are serially diluted in DMSO, followed by dilution into media as a 5× concentration with 1% DMSO, and finally added to cells in media to dilute to 1×. The cells are incubated at 37° C. for 4 more days. At the end of the incubation period, Cell TiterGlo® reagent is mixed and added to the wells. After 10 minutes, the luminescence is read by a Perkin Elmer Envision instrument. Absolute IC50 values generated by a 4-parameter logistics model for the single and combination treatments are generated, followed by combination indexes for each combination treatment and cell line. The combination IC50 values are adjusted based on the total concentration of each compound when added together. […]
A general note: In ATP-based viability assays light output follows the ATP content of the culture.

The subject of assay [2] is MIA Paca-2. Nature of the assay: Combination 4 day growth assay (Cell TiterGlo), MIA Paca-2. The assay is classed as cell-based. As to conditions: Homo sapiens, single treatment, read-out: Absolute IC50. The protocol: (§2) Cell lines for this study are obtained from ATCC and grown under ATCC recommended conditions, except for LXFA-983L, which is obtained from Oncotest/Charles Rivers Laboratories, Wilmington, Mass. and D122-96, which is obtained from L. Eisenbach (Weizman Institute of Science, Rehovot, Israel)—both grown under recommended conditions. […] The proliferation assay is performed as a 4 day growth assay using Cell TiterGlo® as the readout. Briefly, cells are plated in 96-well cell culture plates and allowed to adhere overnight at 37° C. The following day, cells are treated with compounds, either single treatments or combination treatments. First, the testing compounds are serially diluted in DMSO, followed by dilution into media as a 5× concentration with 1% DMSO, and finally added to cells in media to dilute to 1×. The cells are incubated at 37° C. for 4 more days. At the end of the incubation period, Cell TiterGlo® reagent is mixed and added to the wells. After 10 minutes, the luminescence is read by a Perkin Elmer Envision instrument. Absolute IC50 values generated by a 4-parameter logistics model for the single and combination treatments are generated, followed by combination indexes for each combination treatment and cell line. The combination IC50 values are adjusted based on the total concentration of each compound when added together. […] The combination index (CI) measures the degree to which the potency of a combination therapy differs from the expected-if-additive potency and is based on the Loewe definition of additivity.
(§3) [formula] Where • CAy and CBy are the concentrations of therapies A and B that produce an effect, y, when given in combination • ICAy and ICBy are the concentrations of A and B that produce an effect, y, when given individually The biological interpretation of the combination index is as follows: synergistic if the combination index <0.5, additive if the combination index is between 0.5 and 2, and antagonistic if the combination index is >2.

Assay [3] deals with H23. Nature of the assay: Combination 4 day growth assay (Cell TiterGlo), H23. The assay is classed as cell-based. As to conditions: Homo sapiens, NCI-H23, 96 h, single treatment, read-out: Absolute IC50. The protocol: as §2, §3
Assay [4] relates to SW837. Kind of assay: Combination 4 day growth assay (Cell TiterGlo), SW837. The assay is classed as cell-based. To be noted: Homo sapiens, single treatment, read-out: Absolute IC50. The protocol:
as §2, §3

The subject of assay [5] is H358. Kind of assay: Combination 4 day growth assay (Cell TiterGlo), H358. The assay is classed as cell-based. As to conditions: Homo sapiens, NCI-H358, 96 h, single treatment, read-out: Absolute IC50. The protocol:
as §2, §3

For assay [6], the system named is SW1573. Nature of the assay: Combination 4 day growth assay (Cell TiterGlo), SW1573. The assay is classed as cell-based. As to conditions: Homo sapiens, 96 h, single treatment, read-out: Absolute IC50. The protocol:
as §2, §3

In assay [7] the test system is SW1463. Nature of the assay: Combination 4 day growth assay (Cell TiterGlo), SW1463. As to conditions: Homo sapiens, single treatment, read-out: Absolute IC50. The assay is classed as cell-based. The protocol: as §2, §3
Assay [8] deals with SW1463 xenograft. Nature of the assay: Anti-tumor growth activity, SW1463 colorectal xenograft. The assay is classed as in vivo. As to conditions: Abemaciclib 50 mg/kg QDx28.
Assay [9] deals with D122-96. Nature of the assay: Combination 4 day growth assay (Cell TiterGlo), D122-96. The assay is classed as cell-based. As to conditions: Mus musculus, 96 h, single treatment, read-out: Absolute IC50. The protocol: as §2, §3
For assay [10], the system named is LXFA-983L. Nature of the assay: Combination 4 day growth assay (Cell TiterGlo), LXFA-983L. The assay is classed as cell-based. To be noted: 96 h, single treatment, read-out: Absolute IC50. The protocol: as §2, §3
The subject of assay [11] is SW756. Nature of the assay: Combination 4 day growth assay (Cell TiterGlo), SW756. As to conditions: Homo sapiens, single treatment, read-out: Absolute IC50. The assay is classed as cell-based. The protocol:
as §1

Assay [12] deals with H2122. Kind of assay: Combination 4 day growth assay (Cell TiterGlo), H2122. The assay is classed as cell-based. To be noted: Homo sapiens, NCI-H2122, 96 h, single treatment, read-out: Absolute IC50. The protocol:
as §2, §3

Assay [13] concerns Kyse-410. Nature of the assay: Combination 4 day growth assay (Cell TiterGlo), KYSE-410. The assay is classed as cell-based. To be noted: Homo sapiens, single treatment, read-out: Absolute IC50. The protocol:
as §1

Assay [14] relates to SW837 xenograft. Kind of assay: Anti-tumor growth activity, SW837 colorectal xenograft. The assay is classed as in vivo. As to conditions: Abemaciclib 50 mg/kg QDx28.
Assay [15] deals with H2030. Nature of the assay: Combination 4 day growth assay (Cell TiterGlo), H2030. The assay is classed as cell-based. To be noted: Homo sapiens, NCI-H2030, 96 h, single treatment, read-out: Absolute IC50. The protocol:
as §1

Assay [16] has as its system H2122 xenograft. Kind of assay: Anti-tumor growth activity, lung cancer H2122 xenograft mouse model. The assay is classed as in vivo. To be noted: H2122 Lung; Abemaciclib 50 mg/kg QDx28. The protocol:
To evaluate in vivo target inhibition and anti-tumor efficacy of a compound, Human lung cancer cells, H358 or H2122 are implanted into nude mice xenograft tumor models. Either H358 or H2122 cells (10×10^6 in a 1:1 Matrigel® mix, 0.2 mL total volume) are implanted by subcutaneous injection in hind leg of nude female mice (Harlan Laboratories). A total of 5 mice each group are used for efficacy study, and a total of 3-4 mice each group are used for target engagement and PD study. Treatment is initiated with oral administration (gavage) of a test compound or vehicle (20% Captisol®, 25 mM phosphate, pH 2.0 in 0.2 mL volume when the tumor size reaches approximately […]. Tumor growth and body weight are monitored over time to evaluate efficacy and signs of toxicity. Bidimensional measurements of tumors are performed twice a week and tumor volumes are calculated based on mid-axis length and mid-axis width. Tumor volume data are transformed to a log scale to equalize variance across time and treatment groups. The log volume data are analyzed with a two-way repeated measures analysis of variance by time and treatment using the mixed procedures in SAS software (version 8.2). The correlation model for the repeated measures is spatial power. Treated groups are compared to the control group at each time point. The mixed procedure is also used separately for each treatment group to calculate adjusted means and standard errors at each time point. Both analyses account for the autocorrelation within each animal. The adjusted means and standard errors are plotted for each treatment group versus time.
H2122 lung tumor cells (10×10^6) are implanted by subcutaneous injection in hind leg of nude female mice (Taconic Biosciences). A total of 5 mice each group are used for efficacy study.

For assay [17], the system named is UM-UC-3. Kind of assay: Combination 4 day growth assay (Cell TiterGlo), UM-UC-3. The assay is classed as cell-based. As to conditions: Homo sapiens, UMUC3, 96 h, single treatment, read-out: Absolute IC50. The protocol:
as §2, §3

Assay [18] deals with MiaPaca-2 xenograft. Nature of the assay: Anti-tumor growth activity, MiaPaca-2 pancreatic xenograft. To be noted: Abemaciclib 50 mg/kg QDx28. The assay is classed as in vivo.
Assay [19] relates to H1792. Kind of assay: Combination 4 day growth assay (Cell TiterGlo), H1792. As to conditions: Homo sapiens, NCI-H1792, 96 h, single treatment, read-out: Absolute IC50. The assay is classed as cell-based. The protocol: as §1
The subject of assay [20] is Calu-1. Kind of assay: Combination 4 day growth assay (Cell TiterGlo), Calu-1. To be noted: Homo sapiens, single treatment, read-out: Absolute IC50. The assay is classed as cell-based. The protocol: as §2, §3
Assay [21] deals with EL3187 (PDX). Kind of assay: Anti-tumor growth activity, EL3187 lung PDX. The assay is classed as in vivo. As to conditions: EL3187 Lung PDX; Erlotinib 25 mg/kg QDx28.

For the compound `CCN1CCN(Cc2ccc(Nc3ncc(F)c(-c4cc(F)c5nc(C)n(C(C)C)c5c4)n3)nc2)CC1` [Abemaciclib, abemaciclib], the IC50 in assay [1] was greater than 10 µM; in assay [2] (96 h), 0.755 µM; in [3], 4.97 µM; in assay [4] (96 h) it was 3.59 µM; in [5] it was 1.23 µM; in assay [6], 0.996 µM. Further, the IC50 in [7] (96 h) is 0.328 µM; in [9], 5.05 µM; in assay [10] it was greater than 10 µM; in assay [11] (96 h), 4.98 µM; in assay [12], 0.547 µM; in [13] (96 h), 3.01 µM. The IC50 in [15] is 9.03 µM; in assay [17] it was 1.72 µM; in assay [19] it was 1.1 µM; in [20] (96 h), greater than 10 µM. The results for the “In Vivo Anti-Tumor Activities” value in assay [8], in assay [14] and in assay [18] were 55.1, −2.13 and 46.88, respectively. In addition, the “Tumor Growth Inhibition (%) or Regression (−%)” value in assay [16] is 79.3 and 79.1.

`C#Cc1cccc(Nc2ncnc3cc(OCCOC)c(OCCOC)cc23)c1` [Erlotinib, erlotinib]: the IC50 in assay [1] is greater than 10 µM; in [2] (MIA PaCa-2, 96 h), greater than 10 µM; in assay [3], greater than 10 µM; in assay [4] (SW837, 96 h) it was greater than 10 µM; in [5], 0.247 µM; in [6], greater than 10 µM. Also, the IC50 in assay [7] (SW1463, 96 h) was 0.446 µM; in assay [9], greater than 10 µM; in assay [10] (LXFA 983L), 2.82 µM; in assay [11] (SW756, 96 h), greater than 10 µM; in assay [12], 0.352 µM; in assay [13] (KYSE-410, 96 h), 0.469 µM. In addition, the IC50 in assay [15] is 1.48 µM; in assay [17], greater than 10 µM; in assay [19], greater than 10 µM; in [20] (Calu-1, 96 h), greater than 10 µM. In addition, in assay [21], the “In Vivo Anti-Tumor Activities” value was 7.8.
